These are literature values, as cited in patent publication US20250114388A1, “ACTIVE PHARMACEUTICAL INGREDIENT COMPOSITIONS AND PREPARATION AND USES THEREOF” (Dr. Anti Fungus, LLC, priority 2023, published 2025).

*1 amine or outer side, *2 acyl side, *3 side chain or, on linkers, in order; H or OH if unused. Where a SMILES comes first, the peptide text is derived from it. Bridges are numbered along the chain shown (N, C = ends). [ ]: non-standard residue; d: D form. The star is where a group is joined. pTerphenylCO(4''-OnC5H11) = CCCCCOc1ccc(-c2ccc(-c3ccc(C(=O)*)cc3)cc2)cc1; Orn(4R-OH,5R-OH) = O=C([C@H](C[C@@H](O)[C@@H](O)N[*:3])N[*:1])[*:2]; hTyr(3S-OH,4S-OH) = N[C@H](C(=O)O)[C@H](O)[C@@H](O)c1ccc(O)cc1; Pro(3S-OH,4S-Me) = C[C@H]1CN[C@H](C(=O)O)[C@H]1O; Hyp = O=C(O)[C@@H]1C[C@@H](O)CN1

Turning to `Clc1ccc(COC(Cn2ccnc2)c2ccc(Cl)cc2Cl)c(Cl)c1` (centres unmarked) [miconazole], the solubility in water result was “insoluble”.

Regarding `C[C@@H]1[C@H](O)[C@@H](C)/C=C/C=C/C=C/C=C/C=C/C=C/C=C/[C@H](O[C@@H]2O[C@H](C)[C@@H](O)[C@H](N)[C@@H]2O)C[C@@H]2O[C@](O)(C[C@@H](O)C[C@@H](O)[C@H](O)CC[C@@H](O)C[C@@H](O)CC(=O)O[C@H]1C)C[C@H](O)[C@H]2C(=O)O` [amphotericin B], the solubility in water entry is reported as “insoluble”.

In the case of `Cc1cccc(N(C)C(=S)Oc2ccc3ccccc3c2)c1` [tolnaftate], the solubility in water result was “insoluble”.

Turning to `CCC(C)n1ncn(-c2ccc(N3CCN(c4ccc(OCC5COC(Cn6cncn6)(c6ccc(Cl)cc6Cl)O5)cc4)CC3)cc2)c1=O` (centres unmarked) [itraconazole], the solubility in water entry is on record as “insoluble”.

Regarding `Clc1ccc(COC(Cn2ccnc2)c2ccc(Cl)cc2Cl)cc1` (centres unmarked) [econazole], the solubility in water entry is given as “insoluble”.

With `CN(C/C=C/C#CC(C)(C)C)Cc1cccc2ccccc12` [terbinafine], the solubility in water result is given as “sparingly soluble”.

Regarding `Clc1ccccc1C(c1ccccc1)(c1ccccc1)n1ccnc1` [clotrimazole], the solubility in water entry is given as “insoluble”.

Turning to `C[C@@H]1[C@H](O)[C@@H](C)/C=C/C=C/CC/C=C/C=C/C=C/C=C/C(O[C@H]2O[C@H](C)[C@@H](O)[C@H](N)[C@@H]2O)CC2O[C@](O)(CC(O)C(O)CCC(O)CC(O)CC(O)CC(=O)O[C@H]1C)CC(O)C2C(=O)O` (some centres unmarked) [nystatin], the solubility in water entry was “sparingly soluble”.

Regarding `CC(=O)N1CCN(c2ccc(OCC3COC(Cn4ccnc4)(c4ccc(Cl)cc4Cl)O3)cc2)CC1` (centres unmarked) [ketoconazole], the solubility in water result is “insoluble”.

As for `OC(Cn1cncn1)(Cn1cncn1)c1ccc(F)cc1F` [fluconazole], the solubility in water entry is recorded as “sparingly soluble”.

Consider `CCCCCOc1ccc(-c2ccc(-c3ccc(C(=O)N[C@H]4C[C@@H](O)[C@@H](O)NC(=O)[C@@H]5[C@@H](O)[C@@H](C)CN5C(=O)[C@H]([C@@H](C)O)NC(=O)[C@H]([C@H](O)[C@@H](O)c5ccc(O)cc5)NC(=O)[C@@H]5C[C@@H](O)CN5C(=O)[C@H]([C@@H](C)O)NC4=O)cc3)cc2)cc1` [anidulafungine] ({pTerphenylCO(4''-OnC5H11)}-[Orn(4R-OH,5R-OH)]T[Hyp][hTyr(3S-OH,4S-OH)]T[Pro(3S-OH,4S-Me)]; lactam 1-C), for which the solubility in water result was “insoluble”.
